The nature of data set [1]: Solubility of micronized FPV in different organic solvents (visual inspection). In kind it is physicochemical. The conditions noted are these: thermodynamic from solid. From the text:
In order to check for a possible improvement of FPV solubility in an aqueous solvent, it was decided to follow the protocol of WO2017009480. As a first task it was necessary to find a suitable organic solvent for pre-dissolution of FPV prior to adding the pre-dissolved FPV to the buffered aqueous solvent. The results are depicted in Table 1 Table 1: Solubility of micronized FPV in different organic solvents

The nature of data set [2]: Solubility and storage stability of aqueous FPV formulations (RP-HPLC on day 0 and day 7). It counts as physicochemical. The following applies: for solubility: thermodynamic from solid; for highest starting concentration of dissolved FPV: HPLC day 0, calculated approx. 17 mg/ml. As to the method:
In order to determine the maximum solubility of FPV in water various samples of either raw or micronized FPV powder have been prepared. […] In this experimental set-up, the FPV starting concentration was adjusted to a calculated value of 5 mg/ml. After admixture of all ingredients the experimental samples contained 10 %v/v PEG 400, 2 %wt dexpanthenol, and either a citrate or a phosphate buffer, or a combination of both, adjusted to pH 5.5. The selected saponins were tested each in three concentrations, i.e. escin: 0.10, 0.25 and 0.50% w/v, and glycyrrhizin: 1.0, 2.5 and 5.0% w/v. Glycyrrhizin was applied in the form of dipotassium glycyrrhizinate in this and all other examples. For the quantification of FPV contents in the experimental sample formulations, an RP-HPLC method using a Zorbax Eclipse Plus C18 column from Agilent Technologies was applied and adapted for the present purpose. The results of the storage stability test of the various FPV containing samples are depicted in Table 2. Table 2: Storage stability of different aqueous formulations of 5 mg/ml FPV In an attempt to raise the starting concentration of FPV in a pharmaceutically acceptable aqueous solvent the PEG 400 / FPV stock solution was applied in an amount such as to increase the theoretical / calculated FPV concentration from 5 to about 10mg/ml, more precisely to 9.5mg/ml. After admixture of the predetermined portion of PEG 400 solvent comprising FPV to the aqueous buffer solution the resulting samples contained 10.5 %v/v PEG 400, and 2% dexpanthenol in phosphate buffer pH 5.5. The selected saponins were applied in the following concentrations: escin: 0.01 and 0.05 %w/v; glycyrrhizin: 1.0, 2.5 and 5.0 %w/v. The sample formulations were analyzed by HPLC on day 0 and day 7, the results being depicted in Table 3. Table 3: Storage stability of different aqueous formulations of 9.5 mg/ml FPV In a next step it was tried to even further increase the FPV concentration in the aqueous solvent system. The theoretical FPV starting concentration was adjusted to approximately 17 mg/ml, more precisely to 17.2 mg/ml (raw FPV) and 17.1 mg/ml (micronized FPV), using stock solutions comprising 85.45 mg/ml (raw) and 86.07 mg/ml (micronized) FPV in PEG 400. The final experimental samples contained […] and 2% dexpanthenol in phosphate buffer, pH 5.5, along with varying saponin concentrations: escin 0.10, 0.25 and 0.50 %w/v; glycyrrhizin: 1.0, 2.5 and 5.0 %w/v. The factual - as opposed to the calculated, theoretical - FPV concentrations were determined from the sample preparations by HPLC on day 0 and day 7. Table 4: Storage stability of different aqueous formulations of 17 mg/ml FPV In yet another experimental set-up a possible influence of the organic solvent PEG 400 on the solubility and stability of buffered aqueous sample preparations containing approximately 10 mg/ml FPV was investigated. PEG 400 was used at concentrations of 0, 2.5, 5.0, 7.5 and 10.0 %v/v. The samples were prepared in phosphate buffer, pH 5.5 with 2% dexpanthenol and including at least one of the saponins in the following concentrations: escin 0.01 and 0.05 %w/v; glycyrrhizin 1.0, 2.5 and 5.0 %w/v. […] The FPV contents in the sample preparations were analyzed by HPLC on day 0 and day 7, and the results are depicted in Table 5. In this experiment, only micronized FPV powder was used and was directly added to the aqueous formulations in an amount such as to yield a calculated (theoretical) concentration of 10 mg/ml. […]

For data set [3] the following is noted: cited from earlier work.

In brackets after ≈: the same amount, converted by molar mass. Some results are limits rather than exact numbers.

Consider `NC(=O)c1nc(F)cnc1O` [FPV, 6-fluoro-3-hydroxypyrazine-2-carboxamide], for which the solubility in data set [1] (organic solvent or mixture, solvent Glycerol, read-out: Solubility, Visual Inspection Conc.) is less than 33000 µg/mL; in data set [1] (organic solvent or mixture, solvent PEG 400, read-out: Solubility, Visual Inspection Conc.), 90000 µg/mL (≈ 573 mM); in data set [1] (organic solvent or mixture, solvent PG, read-out: Solubility, Visual Inspection Conc.), less than 10000 µg/mL; in data set [1] (organic solvent or mixture, solvent PPG 400, read-out: Solubility, Visual Inspection Conc.), 25000 µg/mL (≈ 159 mM); in data set [1] (solvent AD (distilled water), read-out: Solubility, Visual Inspection Conc.), 5000 µg/mL (≈ 31.8 mM); in data set [2] (25 °C, pure water, read-out: solubility in an aqueous solution), approximately 4500 µg/mL. Moreover, the solubility in data set [2] (aqueous buffer, stable pH 4 to 6, phosphate or citrate buffer system, read-out: solubility in an aqueous solution) is more than 10000 µg/mL; in data set [2] (aqueous solution without buffer, 25 °C, water, without buffer, regardless of the amount of FPV added, read-out: maximum solubility of FPV in an aqueous solution), less than 5000 µg/mL. Also, the “highest starting concentration of dissolved FPV” value in data set [2] (micronized FPV in phosphate buffer without saponins and without dexpanthenol) is 11.7 mg/mL; in data set [2] (raw FPV in phosphate buffer pH 5.5 including 5 %w/v glycyrrhizin), 11.5 mg/mL. In addition, the “solubility in water” value in data set [3] is “slightly soluble”.

As usually defined, the solubility is the dissolved amount per volume that the medium holds.
